Read-outs that look alike come from different tables or passages of the source.
Legend:
[1] = tested on: Pseudomonas aeruginosa ATCC 27853; assay: microbe, parasite or virus in culture; type: cell-based; details: P. aeruginosa ATCC 27853, MHB, 37°C 6 h + 2 h, triplicate
Procedure: (§1) Peptides corresponding to the predicted antimicrobial regions of ModoCath1 (ΔModoCath1, N-VKRTKRGARRGL […]-C), ModoCath5 (ΔModoCath5, N-[…]-C), ModoCath6 (ΔModoCath6, N-[…]-C) and PMAP36 (N-[…] PLGCG-C) were synthesized via solid-phase peptide synthesis and purified via high-performance liquid chromatography using a commercial service (GenScript, Piscataway Township, NJ, United States). The MIC of synthesized peptides was determined against a panel of bacteria comprising 3 gram-positive strains, Staphylococcus aureus ATCC 6538 (ATCC, Manassas, VA, United States), Bacillus cereus ATCC 10876, and Enterococcus faecalis ATCC 29212, and 3 gram-negative strains, Escherichia coli ATCC 25922, Pseudomonas aeruginosa ATCC 27853, and Salmonella typhimurium ATCC 14028. Ampicillin (Sigma Aldrich, St. Louis, MO, United States) and gentamicin sulfate (Sigma Aldrich) were used as controls for antimicrobial activity. The MIC was determined using a colorimetric method specified by the Microbial Viability Assay Kit-WST (Dojindo, Kumamoto, Japan) in accordance with the manufacturer’s protocol and the Clinical and Laboratory Standards Institute (CLSI) guidelines (2018). Briefly, four colonies of each bacterium were inoculated into 5 mL Luria-Bertani (LB) broth medium at 37°C for 4 to 6 h. The cells were washed with sterile saline (0.9% NaCl) twice and seeded in a single well of a 96-well plate at the cell density of 10^5 CFU/well. Subsequently, 180 μL/well of fresh Mueller-Hinton broth (MHB) was added to the plate. Different concentrations of each peptide and reference antibiotics were serially diluted in 10 μL of MHB and added to each well. The plate was incubated at 37°C for 6 h. Cation-adjusted MH broth (CAMHB) was used to culture E. faecalis. Subsequently, 10 μL of the coloring reagent was added, and cells were incubated at 37°C for 2 h. UV absorbance was measured for each well at 450 nm, using a microplate spectrophotometer (xMark spectrophotometer; Bio-Rad, Hercules, CA, United States). MIC values were determined when the difference in the optical density (OD) between treatments and blanks (media and coloring reagent only) decreased to < 0.05. Experiments were conducted in triplicate. […] The pH conditions were achieved by using acetic acid (Sigma Aldrich).

[2] = tested on: Escherichia coli ATCC 25922; assay: microbe, parasite or virus in culture; type: cell-based; details: E. coli ATCC 25922, MHB, 10^5 CFU/well, 37°C 6 h + 2 h with coloring reagent, OD 450 nm, triplicate
Procedure: as §1

[3] = tested on: Bacillus cereus ATCC 10876; assay: microbe, parasite or virus in culture; type: cell-based; details: B. cereus ATCC 10876, MHB, 37°C 6 h + 2 h, triplicate
Procedure: as §1

[4] = tested on: Enterococcus faecalis ATCC 29212; assay: microbe, parasite or virus in culture; type: cell-based; details: E. faecalis ATCC 29212, CAMHB, 37°C 6 h + 2 h, triplicate
Procedure: as §1

[5] = tested on: Staphylococcus aureus ATCC 6538; assay: microbe, parasite or virus in culture; type: cell-based; details: S. aureus ATCC 6538, MHB, 37°C 6 h + 2 h, triplicate
Procedure: as §1

[6] = tested on: Salmonella typhimurium ATCC 14028; assay: microbe, parasite or virus in culture; type: cell-based; details: S. typhimurium ATCC 14028, MHB, 37°C 6 h + 2 h, triplicate
Procedure: as §1

[7] = tested on: Human primary keratinocytes; assay: Viability of keratinocytes, XTT; type: cell-based; details: positive control, concentration not given
Description: The Ethics Committee of the Poitiers Hospital approved the use of human skin samples for research studies. All subjects provided written informed consent in accordance with the tenets of the Declaration of Helsinki. Normal abdominal or breast skin samples were obtained from patients undergoing plastic surgery and thoroughly washed with PBS free of calcium and magnesium (PBS; Gibco, Thermo Fisher Scientific, Waltham, MA, United States) after fat removal. The skin samples were minced into fragments of approximately 125 mm^2, using scalpel blades. Skin samples were incubated overnight at 4°C in a dispase solution (25 U/mL; Life Technologies, Carlsbad, CA, United States). Epidermal sheets were removed from the dermis, and keratinocytes were dissociated via trypsin digestion (trypsin-EDTA; Gibco) for 15 min at 37°C. The cell suspension was then filtered through a 280-μm sterile filter. DMEM (Gibco) supplemented with 10% (vol/vol) of FBS (Gibco) was added, and the suspension was centrifuged at 300 × g and 25°C for 10 min. Keratinocytes were seeded at a density of 10^7 cells in 75-cm^2 tissue culture flask in keratinocyte-serum free medium (K-SFM; Invitrogen, Carlsbad, CA, United States) supplemented with bovine pituitary extract (25 μg/mL; Invitrogen) and recombinant epidermal growth factor (EGF) (0.25 ng/mL; Invitrogen). The cultures were incubated at 37°C in a humidified atmosphere with 5% CO2 until 80% confluence and then stored frozen in liquid nitrogen until use. Finally, keratinocytes were seeded in sterile 24-well culture plates at 10^5 cells/well in K-SFM supplemented with bovine pituitary extract and EGF and cultured to 80% confluence. Cells were then starved overnight in K-SFM alone before stimulation.
Primary keratinocytes were cultured in 96-well plates at 4 × 10^4 cells per well in 0.1 mL K-SFM (Invitrogen) up to 80% confluence before being treated with various concentrations of ModoCath peptides for 24 h. Cell viability was assessed using the cell proliferation kit II (XTT; Roche, Basel, Switzerland) in accordance with the manufacturer’s protocol. The XTT labeling mixture was added after 24 h of incubation in the absence or presence of peptides at the indicated concentrations.

[8] = tested on: MCF7; assay: Mammalian cell cytotoxicity, WST-1; type: cell-based, human; details: positive control for complete cell lysis, concentration not given
Procedure: (§2) Two mammalian cell lines, including human embryonic kidney cells (HEK293T) and human breast cancer cells (MCF7) were cultured in Dulbecco’s modified Eagle’s medium (DMEM; Hyclone^TM, Logan, UT, United States) supplemented with 10% FBS (Hyclone^TM) and 1% penicillin/streptomycin (Hyclone^TM) and incubated at 37°C and 5% CO2 up to 80% confluence. Cellular adherence to the substratum was disrupted using Accutase (Innovative Cell Technologies, San Diego, CA, United States). In total, 1 × 10^4 to 4 × 10^4 cells in each well of a 96-well plate containing 8, 16, 32, and 64 μg/mL of ModoCath peptides were incubated for 24 h at 37°C and 5% CO2. Additionally, HEK293T cells were incubated in the FBS-free medium. Triton X 100 (Sigma Aldrich) was used as a positive control for complete cell lysis, and untreated cells were used as the negative control. After incubation, the medium was removed from the wells, and 10 μL of coloring solution (Cell Proliferation Reagent WST-1^TM; Sigma Aldrich) and 100 μL of DMEM (Hyclone^TM) were added to the wells in accordance with the manufacturer’s protocol. Absorbance was measured for each well at 440 nm (peptide-treated and control) and 650 nm (background) and recorded as the OD, using a microplate reader (xMark^TM spectrophotometer; Bio-Rad). Cell viability was calculated using the following equation:
(§3) (1) CellViability(%)=100×(ODpeptide-ODbackground)/(ODnegative-ODbackground)
(§4) All experiments were performed in triplicate.

[9] = tested on: HEK293T; assay: Mammalian cell cytotoxicity, WST-1; type: cell-based, human; details: positive control for complete cell lysis, concentration not given
Procedure: as §2, §3, §4

[10] = Escherichia coli, ATCC25922, read-out: MIC
[11] = Bacillus cereus, ATCC10876, read-out: MIC
[12] = Staphylococcus aureus, ATCC6538, read-out: MIC

| Molecule | MIC [2, 10] [µg/mL] | MIC [3, 11] [µg/mL] | MIC [5, 12] [µg/mL] | MIC [2] | MIC [3] | MIC [5] | other results |
| --- | --- | --- | --- | --- | --- | --- | --- |
| CC1(C)S[C@@H]2[C@H](NC(=O)[C@H](N)c3ccccc3)C(=O)N2[C@H]1C(=O)O [Ampicillin, reference compound] | 1 | 16 | 1 |  |  |  | MIC ([1]; Pseudomonas aeruginosa, ATCC27853, read-out: MIC): > 128 µg/mL; MIC ([4]; Enterococcus faecalis, ATCC29212, read-out: MIC): 2 µg/mL; MIC ([6]; Salmonella enterica, read-out: MIC): 1 µg/mL |
| CN[C@H](CC(C)C)C(=O)N[C@H]1C(=O)N[C@@H](CC(N)=O)C(=O)N[C@H]2C(=O)N[C@H]3C(=O)N[C@H](C(=O)N[C@H](C(=O)O)c4cc(O)cc(O)c4-c4cc3ccc4O)[C@H](O)c3ccc(c(Cl)c3)Oc3cc2cc(c3O[C@@H]2O[C@H](CO)[C@@H](O)[C@H](O)[C@H]2O[C@H]2C[C@](C)(N)[C@H](O)[C@H](C)O2)Oc2ccc(cc2Cl)[C@H]1O [Vancomycin] | 32 | 4 | 5 |  |  |  |  |
| Nisin |  |  |  | > 32(9.54) μg/mL | 32 (9.54) μg/mL | 15 (4.47) μg/mL |  |
| Triton X-100 [reference compound] |  |  |  |  |  |  | Cell viability ± SD [7]: 8.2 ± 0.4%; Cell viability ± SD [8]: 11.4 ± 0.4%; Cell viability ± SD [9]: 11.6 ± 2.5% |
| gentamicin sulfate [Gentamycin, reference compound] |  |  |  | 1 (2.09) μg/mL | 1 (2.09) μg/mL | 1 (2.09) μg/mL | MIC [1]: 1 (2.09) μg/mL; MIC [4]: 5 (10.45) μg/mL; MIC [6]: 1 (2.09) μg/mL |

Source: PMC7063992, “Opossum Cathelicidins Exhibit Antimicrobial Activity Against a Broad Spectrum of Pathogens Including West Nile Virus” (Frontiers in Immunology, 2020)
